Assay results: ChEMBL document CHEMBL6096670, “Design, synthesis and biological evaluation of novel β-carbolines as antitumor agents via targeting autophagy in colorectal cancer” (Eur J Med Chem, 2025)
Active and inactive are the calls of the source. The calls are words filed in the database; no cut-off is given here.

How the values were obtained:
[1] = tested on: HCT-116; assay: Antiproliferative activity against human HCT-116 assessed as inhibition of cell viability incubated for 24 hrs by CCK8 method; assay type: functional, cell-based
[2] = tested on: HCT-116; assay: Induction of apoptosis in human HCT-116 assessed as necrotic cells at 2 uM incubated for 24 hrs Annexin V FITC/PI double staining based flow cytometry (reference value: 0.94 %); assay type: functional
[3] = tested on: HCT-116; assay: Induction of apoptosis in human HCT-116 assessed as viable cells at 1 uM pretreated with Z-VAD-FMK for 30 mins followed by compound addition and measured after 24 hrs by Annexin V-FITC/PI double staining based flow cytometry (reference value: 90.8%); assay type: functional; conditions: read-out: Activity
[4] = tested on: HCT-116; assay: Effect on C-PARP expression level in p53 knockout human HCT-116 cells at 1 to 2 uM incubated for 24 hrs by Western blot analysis; assay type: functional, cell-based; conditions: dose 1-2 µM
[5] = tested on: HCT-116; assay: Antiproliferative activity against human HCT-116 assessed as inhibition of cell viability at 0.5 to 2 uM by CCK8 method; assay type: functional, cell-based; conditions: dose 0.5-2 µM, time <= 7.0 day
[6] = tested on: HCT-116; assay: Induction of apoptosis in human HCT-116 cells assessed as effect on cleaved caspase-8 expression level at 0.5 to 2 uM incubated for 24 hrs by Western blot analysis; assay type: functional, cell-based; conditions: dose 0.5-2 µM
[7] = tested on: HCT-116; assay: Induction of autophagy in human HCT-116 cells transfected with mRFP-GFP-LC3B assessed as autophagolysosome formation by measuring increase in mRFP to GFP fluorescence ratio at 0.5 to 2 uM incubated for 24 hrs by DAPI staining based fluorescence confocal microscopic analysis; assay type: functional, cell-based; conditions: dose 0.5-2 µM
[8] = tested on: HCT-116; assay: Induction of autophagy pathway in human HCT-116 cells at 1 uM incubated for 24 hrs by GSEA analysis; assay type: functional, cell-based
[9] = tested on: HCT-116; assay: Induction of autophagy in ATG7 knockout human HCT-116 cells assessed as increase in LC3-II expression at 1 to 2 uM incubated for 24 hrs by Western blot analysis; assay type: functional, cell-based; conditions: dose 1-2 µM

CCN(CC)CCCNCc1cc2c3ccccc3n(CCCc3ccccc3)c2c(CNCCCN(CC)CC)n1
Activity [1]: Dose-dependent-effect
IC50 ([1]; HCT-116, 24 h): 2750 nM
Activity [2]: 2.86%
viability at 1 µM [3]: 83.7%
Activity [4]: inactive
Activity [5]: Time-dependent-effect
Activity [6]: inactive
Activity [7]: Active
Activity [8]: Active
Activity [9]: inactive
